These are literature values, as cited in patent publication EP0081783B2, “Renin inhibitory peptides having Phe 13 deletion” (Merck & Co., Inc., priority 1981, dated 1989).

The series concerns hog renin. The following applies: after the injection of hog renin into nephrectomized rats.

Turning to pepstatin, the “blood pressure in vivo” value was “reduce blood pressure”.
